Data taken from ChEMBL document CHEMBL6153110, “Peptide Double-Stapling and Arginine N-Glycosylation Triggered the Development of Therapeutic Antimicrobial Peptides Capable of Killing Drug-Resistant Bacteria in Mice” (J Med Chem, 2025).
Converted amounts (≈) assume the structure as drawn. Positions of bridges follow the written chain, without caps; N, C: chain ends. Non-standard residues stand in square brackets, D forms with d. Residues, ends and D or L forms follow the SMILES beside them. R8 = C=CCCCCCC[C@@](C)(N)C(=O)O; S5 = C=CCCC[C@](C)(N)C(=O)O

Tests used:
Assay type in all cases: functional
Klebsiella pneumoniae = assay: Antimicrobial activity against Klebsiella pneumoniae ATCC 13883 assessed as growth inhibition measured after 8 hrs incubation by standard broth dilution assay
Staphylococcus aureus = assay: Antimicrobial activity against methicillin-resistant Staphylococcus aureus ATCC 43300 assessed as growth inhibition measured after 8 hrs incubation by standard broth dilution assay
Pseudomonas aeruginosa = assay: Antimicrobial activity against Pseudomonas aeruginosa ATCC 27853 assessed as growth inhibition measured after 8 hrs incubation by standard broth dilution assay
Streptococcus pneumoniae = assay: Antimicrobial activity against Streptococcus pneumoniae ATCC 49619 assessed as growth inhibition measured after 8 hrs incubation by standard broth dilution assay

| SMILES | MIC (Klebsiella pneumoniae) [µg/mL] | MIC (Staphylococcus aureus) [µg/mL] | MIC (Pseudomonas aeruginosa) [µg/mL] | MIC (Streptococcus pneumoniae) [µg/mL] |
| --- | --- | --- | --- | --- |
| CC(=O)N[C@@]1(C)CCC/C=C\CCC[C@@](C)(C(=O)N[C@@H](CCCCN)C(=O)N[C@@H](CCCNC(=N)N)C(=O)N[C@H](C(=O)N[C@@H](Cc2ccccc2)C(=O)N[C@@H](CCCCN)C(=O)N[C@@H](CC(C)C)C(=O)N[C@@H](CC(C)C)C(=O)N[C@@H](CCCCN)C(=O)N[C@@H](CCCNC(=N)N)C(=O)N[C@@H](Cc2ccc(O)cc2)C(=O)N[C@@H](Cc2c[nH]c3ccccc23)C(=O)N[C@@H](CCCNC(=N)N)C(=O)N[C@@H](CCC(N)=O)C(=O)N[C@@H](CC(C)C)C(=O)N[C@@H](CCCCN)C(=O)N[C@@H](CCCCN)C(=O)N2CCC[C@H]2C(=O)N[C@H](C(=O)N[C@@H](CCCNC(=N)N)C(N)=O)C(C)C)C(C)C)NC(=O)[C@H](C(C)C)NC(=O)[C@H](CCCNC(=N)N)NC(=O)[C@H](CCCCN)NC1=O (Ac-[S5]KRV[S5]KRVFKLLKRYWRQLKKPVR-NH2; staple (Z) 1-5) | 38 (≈ 11.8 µM) | 2.5 (≈ 0.777 µM) | 2.6 (≈ 0.808 µM) | 37.7 (≈ 11.7 µM) |
| CC(=O)N[C@@H](CC(C)C)C(=O)N[C@@H](CCCCN)C(=O)N[C@@H](CCCNC(=N)N)C(=O)N[C@H](C(=O)N[C@@H](Cc1c[nH]c2ccccc12)C(=O)N[C@@H](CCCCN)C(=O)N[C@@H](CCCNC(=N)N)C(=O)N[C@H](C(=O)N[C@@H](Cc1ccccc1)C(=O)N[C@@H](CCCCN)C(=O)N[C@@H](CC(C)C)C(=O)N[C@@H](CC(C)C)C(=O)N[C@@H](CCCCN)C(=O)N[C@@H](CCCNC(=N)N)C(=O)N[C@@H](Cc1ccc(O)cc1)C(=O)N[C@@H](Cc1c[nH]c2ccccc12)C(=O)N[C@@H](CCCNC(=N)N)C(=O)N[C@@]1(C)CCC/C=C\CCC[C@@](C)(C(=O)N[C@H](C(=O)N[C@@H](CCCNC(=N)N)C(N)=O)C(C)C)NC(=O)[C@H](CCCCN)NC(=O)[C@H](CCCCN)NC(=O)[C@H](CC(C)C)NC1=O)C(C)C)C(C)C (Ac-LKRVWKRVFKLLKRYWR[S5]LKK[S5]VR-NH2; staple (Z) 18-22) | 38 (≈ 11.5 µM) | 4.9 (≈ 1.49 µM) | 9.8 (≈ 2.98 µM) | 37.7 (≈ 11.5 µM) |
| CC(=O)N[C@@H](CC(C)C)C(=O)N[C@@H](CCCCN)C(=O)N[C@@H](CCCNC(=N)N)C(=O)N[C@H](C(=O)N[C@]1(C)CCCCCC/C=C\CCC[C@@](C)(C(=O)N[C@@H](CCCCN)C(=O)N[C@@H](CCCNC(=N)N)C(=O)N[C@@H](Cc2ccc(O)cc2)C(=O)N[C@@H](Cc2c[nH]c3ccccc23)C(=O)N[C@@H](CCCNC(=N)N)C(=O)N[C@@H](CCC(N)=O)C(=O)N[C@@H](CC(C)C)C(=O)N[C@@H](CCCCN)C(=O)N[C@@H](CCCCN)C(=O)N2CCC[C@H]2C(=O)N[C@H](C(=O)N[C@@H](CCCNC(=N)N)C(N)=O)C(C)C)NC(=O)[C@H](CC(C)C)NC(=O)[C@H](CCCCN)NC(=O)[C@H](Cc2ccccc2)NC(=O)[C@H](C(C)C)NC(=O)[C@H](CCCNC(=N)N)NC(=O)[C@H](CCCCN)NC1=O)C(C)C (Ac-LKRV[R8]KRVFKL[S5]KRYWRQLKKPVR-NH2; staple (Z) 5-12) | 38 (≈ 11.7 µM) | 9.7 (≈ 2.98 µM) | 19.3 (≈ 5.92 µM) | 9.6 (≈ 2.94 µM) |
| CC(=O)N[C@@H](CC(C)C)C(=O)N[C@@H](CCCCN)C(=O)N[C@@H](CCCNC(=N)N)C(=O)N[C@H](C(=O)N[C@@H](Cc1c[nH]c2ccccc12)C(=O)N[C@@H](CCCCN)C(=O)N[C@@H](CCCNC(=N)N)C(=O)N[C@H](C(=O)N[C@@]1(C)CCC/C=C\CCC[C@@](C)(C(=O)N[C@@H](CCCNC(=N)N)C(=O)N[C@@H](Cc2ccc(O)cc2)C(=O)N[C@@H](Cc2c[nH]c3ccccc23)C(=O)N[C@@H](CCCNC(=N)N)C(=O)N[C@@H](CCC(N)=O)C(=O)N[C@@H](CC(C)C)C(=O)N[C@@H](CCCCN)C(=O)N[C@@H](CCCCN)C(=O)N2CCC[C@H]2C(=O)N[C@H](C(=O)N[C@@H](CCCNC(=N)N)C(N)=O)C(C)C)NC(=O)[C@H](CC(C)C)NC(=O)[C@H](CC(C)C)NC(=O)[C@H](CCCCN)NC1=O)C(C)C)C(C)C (Ac-LKRVWKRV[S5]KLL[S5]RYWRQLKKPVR-NH2; staple (Z) 9-13) | 38 (≈ 11.7 µM) | 2.5 (≈ 0.771 µM) | 5 (≈ 1.54 µM) | 9.6 (≈ 2.96 µM) |
